In PubChem BioAssay AID1963959 (Molecular Pharmacology Branch, DTP, NCI, 2024):

Tested on: T-47D spheroids with HUVEC/MSC, viability
Experiment: Anticancer human tumor T-47D cell line growth inhibition [PI3K];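 note: spheroids exposed to agents for seven days before reading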;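 for viability, T/C: percent of DMSO vehicle control luminescence so 100% = untreated growth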
Details: for IC50: curve of first compound; for viability, T/C: stronger effect = lower value
Outline: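 Stroma-containing spheroids: tumor line, pooled-donor HUVEC, hMSC. Treatments: targeted agents with PI3K inhibitors. Dosing: clinically relevant, half-log spacing, 10 microM ceiling without known Cmax. Read-out: cell viability.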

[1] = second compound 0.0316 µM, first compound 0.0316 µM
[2] = second compound 0.0316 µM, first compound 0.1 µM
[3] = second compound 0.0316 µM, first compound 0.316 µM
[4] = second compound 0.0316 µM, first compound 1 µM
[5] = second compound 0.1 µM, first compound 0.0316 µM
[6] = second compound 0.1 µM, first compound 0.1 µM
[7] = second compound 0.1 µM, first compound 0.316 µM
[8] = second compound 0.1 µM, first compound 1 µM
[9] = second compound 0.316 µM, first compound 0.0316 µM
[10] = second compound 0.316 µM, first compound 0.1 µM
[11] = second compound 0.316 µM, first compound 0.316 µM
[12] = second compound 0.316 µM, first compound 1 µM
[13] = second compound 1 µM, first compound 0.0316 µM
[14] = second compound 1 µM, first compound 0.1 µM
[15] = second compound 1 µM, first compound 0.316 µM
[16] = second compound 1 µM, first compound 1 µM

SMILES: CC(Cn1ccc(-c2ccc(C#N)c(Cl)c2)n1)NC(=O)c1cc(C(C)O)[nH]n1 (centres undefined) + CC(Nc1ccc2c(c1)OCCn1cc(N3C(=O)OCC3C(F)F)nc1-2)C(N)=O
- IC50 (second compound 0.00316 µM): > 10 µM
- IC50 (second compound 0.01 µM): > 10 µM
- IC50 (second compound 0.0316 µM): > 10 µM
- IC50 (second compound 0.1 µM): > 10 µM
- IC50 (second compound 0.316 µM): > 10 µM
- IC50 (second compound 1 µM): 0.25 µM
- viability, T/C (second compound 0.00316 µM, first compound 0.0316 µM): 92.5%
- viability, T/C (second compound 0.00316 µM, first compound 0.1 µM): 91.2%
- viability, T/C (second compound 0.00316 µM, first compound 0.316 µM): 83.2%
- viability, T/C (second compound 0.00316 µM, first compound 1 µM): 79.1%
- viability, T/C (second compound 0.00316 µM, first compound 3.16 µM): 88.5%
- viability, T/C (second compound 0.00316 µM, first compound 10 µM): 59.3%
- viability, T/C (second compound 0.01 µM, first compound 0.0316 µM): 114%
- viability, T/C (second compound 0.01 µM, first compound 0.1 µM): 85.7%
- viability, T/C (second compound 0.01 µM, first compound 0.316 µM): 92.1%
- viability, T/C (second compound 0.01 µM, first compound 1 µM): 73.5%
- viability, T/C (second compound 0.01 µM, first compound 3.16 µM): 92.2%
- viability, T/C (second compound 0.01 µM, first compound 10 µM): 63.2%
- viability, T/C [1]: 125%
- viability, T/C [2]: 98%
- viability, T/C [3]: 76.2%
- viability, T/C [4]: 83.2%
- viability, T/C (second compound 0.0316 µM, first compound 3.16 µM): 90.6%
- viability, T/C (second compound 0.0316 µM, first compound 10 µM): 62.7%
- viability, T/C [5]: 83.1%
- viability, T/C [6]: 76.5%
- viability, T/C [7]: 76.2%
- viability, T/C [8]: 72.1%
- viability, T/C (second compound 0.1 µM, first compound 3.16 µM): 87.7%
- viability, T/C (second compound 0.1 µM, first compound 10 µM): 67.2%
- viability, T/C [9]: 65.8%
- viability, T/C [10]: 65.7%
- viability, T/C [11]: 55.2%
- viability, T/C [12]: 57.3%
- viability, T/C (second compound 0.316 µM, first compound 3.16 µM): 60.2%
- viability, T/C (second compound 0.316 µM, first compound 10 µM): 53.5%
- viability, T/C [13]: 87.2%
- viability, T/C [14]: 56.4%
- viability, T/C [15]: 46.8%
- viability, T/C [16]: 46.1%
- viability, T/C (second compound 1 µM, first compound 3.16 µM): 54.7%
- viability, T/C (second compound 1 µM, first compound 10 µM): 41.4%

SMILES: CCN1CCN(Cc2ccc(Nc3ncc(F)c(-c4cc(F)c5nc(C)n(C(C)C)c5c4)n3)nc2)CC1 + Cc1nc(NC(=O)N2CCCC2C(N)=O)sc1-c1ccnc(C(C)(C)C(F)(F)F)c1
- IC50 (second compound 0.0316 µM): > 1 µM
- IC50 (second compound 0.1 µM): > 1 µM
- IC50 (second compound 0.316 µM): > 1 µM
- IC50 (second compound 1 µM): > 1 µM
- IC50 (second compound 3.16 µM): 0.00856 µM
- IC50 (second compound 10 µM): < 0.00316 µM
- viability, T/C (second compound 0.0316 µM, first compound 0.00316 µM): 111%
- viability, T/C (second compound 0.0316 µM, first compound 0.01 µM): 87.8%
- viability, T/C [1]: 89%
- viability, T/C [2]: 85%
- viability, T/C [3]: 80.9%
- viability, T/C [4]: 92.7%
- viability, T/C (second compound 0.1 µM, first compound 0.00316 µM): 100%
- viability, T/C (second compound 0.1 µM, first compound 0.01 µM): 73.7%
- viability, T/C [5]: 82.1%
- viability, T/C [6]: 72.3%
- viability, T/C [7]: 80.7%
- viability, T/C [8]: 85.2%
- viability, T/C (second compound 0.316 µM, first compound 0.00316 µM): 96%
- viability, T/C (second compound 0.316 µM, first compound 0.01 µM): 73.4%
- viability, T/C [9]: 70.2%
- viability, T/C [10]: 67%
- viability, T/C [11]: 64.4%
- viability, T/C [12]: 73.2%
- viability, T/C (second compound 1 µM, first compound 0.00316 µM): 78.9%
- viability, T/C (second compound 1 µM, first compound 0.01 µM): 64.5%
- viability, T/C [13]: 55.9%
- viability, T/C [14]: 51.9%
- viability, T/C [15]: 58.9%
- viability, T/C [16]: 70.3%
- viability, T/C (second compound 3.16 µM, first compound 0.00316 µM): 61.2%
- viability, T/C (second compound 3.16 µM, first compound 0.01 µM): 49.2%
- viability, T/C (second compound 3.16 µM, first compound 0.0316 µM): 44.2%
- viability, T/C (second compound 3.16 µM, first compound 0.1 µM): 39.3%
- viability, T/C (second compound 3.16 µM, first compound 0.316 µM): 47.1%
- viability, T/C (second compound 3.16 µM, first compound 1 µM): 53.2%
- viability, T/C (second compound 10 µM, first compound 0.00316 µM): 30.5%
- viability, T/C (second compound 10 µM, first compound 0.01 µM): 26%
- viability, T/C (second compound 10 µM, first compound 0.0316 µM): 24.5%
- viability, T/C (second compound 10 µM, first compound 0.1 µM): 27.2%
- viability, T/C (second compound 10 µM, first compound 0.316 µM): 33.1%
- viability, T/C (second compound 10 µM, first compound 1 µM): 38.6%
